For experiment [1], the system named is A549. In words: Antiproliferative activity against human A549 cells after 48 hrs by CCK8 assay. To be noted: A549, 48 h. It counts as functional, cell-based.
Experiment [2] has as its system HeLa. Kind of experiment: Antiproliferative activity against human HeLa cells after 48 hrs by CCK8 assay. The experiment is classed as functional, cell-based.
Experiment [3] relates to L929. Kind of experiment: Antiproliferative activity against mouse L929 cells after 48 hrs by CCK8 assay. The following applies: L929, 48 h. The experiment is classed as cell-based. (In general: Formazan colour is commonly taken as a measure of viable cells.)
Experiment [4] can be described thus: Antiproliferative activity against human SMMC7721 cells after 48 hrs by CCK8 assay. The experiment is classed as functional, cell-based. The following applies: SMMC-7721, 48 h.

A value given as a limit tells only on which side of the number the result lay.

A word on the IC50: it is the concentration that inhibits the measured activity by half. A higher IC50 goes with weaker potency. On to `CCCCSc1n[nH]c(-n2[se]c3ccccc3c2=O)n1`, for which the IC50 in experiment [1] was 12.5 µM; in experiment [2], 32.9 µM; in experiment [3] it was 30.4 µM; in experiment [4], 16.8 µM.
The corresponding values for `O=c1c2ccccc2[se]n1CCn1[se]c2ccccc2c1=O` [ETHASELEN] are 3.26 µM, 15.9 µM, above 50 µM and 10.7 µM.
The like results for `CC(C)Sc1n[nH]c(-n2[se]c3ccccc3c2=O)n1` were, in that order, 36.6 µM, 34.6 µM, 37.1 µM and 6.01 µM.
The corresponding values for `Cc1cccc(CSc2n[nH]c(-n3[se]c4ccccc4c3=O)n2)c1` are 12.4 µM, 42.6 µM, above 50 µM and 9.04 µM.
On to `O=c1c2ccccc2[se]n1-c1nc(SCc2ccccc2)n[nH]1`, for which the half-maximal inhibitory concentration (IC50) in experiment [1] was above 50 µM; in experiment [2], above 50 µM; in experiment [3], above 50 µM; in experiment [4], 32 µM.
Take `O=c1[nH]cc(F)c(=O)[nH]1` [FLUOROURACIL]: the 50% inhibitory concentration (IC50) came out at 17.2 µM in experiment [2] and 2.98 µM in experiment [3].
In the case of `CC(C)CSc1n[nH]c(-n2[se]c3ccccc3c2=O)n1`, the IC50 in experiment [1] was determined as 37.8 µM; in experiment [2], 34.9 µM; in experiment [3], 33.4 µM; in experiment [4], 35 µM.
The like results for `CCSc1n[nH]c(-n2[se]c3ccccc3c2=O)n1` were, in that order, 39.6 µM, 14.1 µM, 35.2 µM and 10 µM.
The corresponding values for `O=c1c2ccccc2[se]n1-c1nc(SCc2ccc(F)cc2)n[nH]1` are 36.4 µM, above 50 µM, above 50 µM and 46.1 µM.
The corresponding values for `O=c1c2ccccc2[se]n1-c1nc(SCc2ccc([N+](=O)[O-])cc2)n[nH]1` are 9.14 µM, 3.94 µM, 7.43 µM and 8.91 µM.
Take `Cc1ccccc1CSc1n[nH]c(-n2[se]c3ccccc3c2=O)n1`: the IC50 is 9.72 µM in experiment [1], 6.13 µM in experiment [2], 15.6 µM in experiment [3] and 36.2 µM in experiment [4].
The corresponding values for `CCCSc1n[nH]c(-n2[se]c3ccccc3c2=O)n1` are 45.5 µM, 30.4 µM, 31.8 µM and 6.02 µM.
The like results for `CCCCCCSc1n[nH]c(-n2[se]c3ccccc3c2=O)n1` were, in that order, 20.3 µM, 35.9 µM, 39.3 µM and 22.4 µM.
The like results for `O=c1c2ccccc2[se]n1-c1nc(SCc2ccc(Cl)cc2)n[nH]1` were, in that order, 42.1 µM, 40.9 µM, 39.5 µM and 33.9 µM.
Take `Cc1ccc(CSc2n[nH]c(-n3[se]c4ccccc4c3=O)n2)cc1`: the half-inhibitory concentration (IC50) in experiment [1] is above 50 µM; in experiment [2] it was 34.8 µM; in experiment [3], above 50 µM; in experiment [4] it was above 50 µM.
Turning to `CCCCCSc1n[nH]c(-n2[se]c3ccccc3c2=O)n1`, the IC50 in experiment [1] was found to be 21.1 µM; in experiment [2], 30.3 µM; in experiment [3] it was 33.5 µM; in experiment [4], 31.4 µM.

The record behind these values is ChEMBL document CHEMBL3758108, “Synthesis and antiproliferative evaluation of novel 1,2,4-triazole derivatives incorporating benzisoselenazolone scaffold” (Bioorg Med Chem Lett, 2016).
